# Organism: Rattus norvegicus
# Experiment: Open TG-GATES - Regimen: Single
# Assay type: toxicity, organism-based, Sprague-Dawley
# Design: regimen Single, gender Male, age 6 weeks
# Conditions: in vivo, po, route gavage; for gamma-GTP / ALP / ALT / AST / BUN / CRE / Ca / Cl / DBIL / GLC / IP / K / LDH / Na / PL / RALB / TBIL / TC / TG / TP: tissue Plasma; for Bas / Eos / Fbg / Hb / Ht / Lym / MCHC / MCV / Mono / Neu / PT / Plat / RBC / Ret / WBC / APTT: tissue Blood
# [1] = 300 mg/kg, 3 h, dose level Middle
# [2] = 300 mg/kg, 6 h, dose level Middle
# [3] = 300 mg/kg, 9 h, dose level Middle
# [4] = 300 mg/kg, 24 h, dose level Middle
# [5] = 1000 mg/kg, 3 h, dose level High
# [6] = 1000 mg/kg, 6 h, dose level High
# [7] = 1000 mg/kg, 9 h, dose level High
# [8] = 1000 mg/kg, 24 h, dose level High
structure (smiles),measurement,setting,value
O=C(O)c1cccnc1 [NIACIN],gamma-GTP,"100 mg/kg, 24 h, dose level Low",1 IU/L
same,Bas,[1],0%
same,Eos,[1],1%
same,Fbg,[1],304.8 mg/dL
same,Hb,[1],13.1 g/dL
same,Ht,[1],39.9%
same,Lym,[1],79.2%
same,MCHC,[1],32.9%
same,MCV,[1],64.5 fL
same,Mono,[1],2.4%
same,Neu,[1],16.2%
same,PT,[1],16 s
same,Plat,[1],118.4 x10_4/uL
same,RBC,[1],620.8 x10_4/ul
same,Ret,[1],8.5%
same,WBC,[1],82.2 x10_2/uL
same,ALP,[1],1554 IU/L
same,ALT,[1],38.4 IU/L
same,AST,[1],73 IU/L
same,BUN,[1],13.2 mg/dL
same,CRE,[1],0.2 mg/dL
same,Ca,[1],10.8 mg/dL
same,Cl,[1],105.6 meq/L
same,DBIL,[1],0.002 mg/dL
same,GLC,[1],179.4 mg/dL
same,IP,[1],9.3 mg/dL
same,K,[1],3.7 meq/L
same,LDH,[1],184 IU/L
same,Na,[1],140.2 meq/L
same,PL,[1],120.6 mg/dL
same,RALB,[1],3 g/dL
same,TBIL,[1],0 mg/dL
same,TC,[1],73.6 mg/dL
same,TG,[1],28.8 mg/dL
same,TP,[1],5.6 g/dL
same,gamma-GTP,[1],1.2 IU/L
same,Bas,[2],0%
same,Eos,[2],0.8%
same,Fbg,[2],329.8 mg/dL
same,Hb,[2],13.6 g/dL
same,Ht,[2],41.4%
same,Lym,[2],73%
same,MCHC,[2],32.9%
same,MCV,[2],62.9 fL
same,Mono,[2],2.4%
same,Neu,[2],23%
same,PT,[2],16.6 s
same,Plat,[2],119.6 x10_4/uL
same,RBC,[2],657.8 x10_4/ul
same,Ret,[2],8.4%
same,WBC,[2],82.7 x10_2/uL
same,ALP,[2],1294 IU/L
same,ALT,[2],40.2 IU/L
same,AST,[2],71.4 IU/L
same,BUN,[2],12.6 mg/dL
same,CRE,[2],0.1 mg/dL
same,Ca,[2],10.6 mg/dL
same,Cl,[2],106.4 meq/L
same,DBIL,[2],0.002 mg/dL
same,GLC,[2],182.4 mg/dL
same,IP,[2],9.6 mg/dL
same,K,[2],3.7 meq/L
same,LDH,[2],211.8 IU/L
same,Na,[2],140.6 meq/L
same,PL,[2],125.8 mg/dL
same,RALB,[2],3 g/dL
same,TBIL,[2],0.002 mg/dL
same,TC,[2],76.2 mg/dL
same,TG,[2],31 mg/dL
same,TP,[2],5.6 g/dL
same,gamma-GTP,[2],1.4 IU/L
same,APTT,[3],22.4 s
same,Bas,[3],0%
same,Eos,[3],0.8%
same,Fbg,[3],304.4 mg/dL
same,Hb,[3],13.1 g/dL
same,Ht,[3],39.5%
same,Lym,[3],71.8%
same,MCHC,[3],33.3%
same,MCV,[3],62.6 fL
same,Mono,[3],2.2%
same,Plat,[3],114.7 x10_4/uL
same,RBC,[3],631.4 x10_4/ul
same,Ret,[3],8.5%
same,WBC,[3],72.8 x10_2/uL
same,ALP,[3],1319 IU/L
same,ALT,[3],38.4 IU/L
same,AST,[3],72.2 IU/L
same,CRE,[3],0.2 mg/dL
same,Ca,[3],10.9 mg/dL
same,Cl,[3],105.2 meq/L
same,DBIL,[3],0.006 mg/dL
same,GLC,[3],176 mg/dL
same,IP,[3],9.1 mg/dL
same,K,[3],4.2 meq/L
same,LDH,[3],169.8 IU/L
same,Na,[3],140.8 meq/L
same,PL,[3],124.8 mg/dL
same,RALB,[3],2.8 g/dL
same,TBIL,[3],0.004 mg/dL
same,TC,[3],70.2 mg/dL
same,TG,[3],50.4 mg/dL
same,TP,[3],5.3 g/dL
same,gamma-GTP,[3],1.6 IU/L
same,Bas,[4],0%
same,Eos,[4],1%
same,Fbg,[4],343 mg/dL
same,Hb,[4],13.7 g/dL
same,Ht,[4],40%
same,Lym,[4],78.4%
same,MCHC,[4],34.2%
same,MCV,[4],62.5 fL
same,Mono,[4],2.6%
same,Neu,[4],16.6%
same,PT,[4],16 s
same,Plat,[4],120.8 x10_4/uL
same,RBC,[4],640 x10_4/ul
same,Ret,[4],6.4%
same,WBC,[4],98.1 x10_2/uL
same,ALP,[4],1858 IU/L
same,AST,[4],70.4 IU/L
same,BUN,[4],14 mg/dL
same,CRE,[4],0.1 mg/dL
same,Ca,[4],10.7 mg/dL
same,Cl,[4],104.4 meq/L
same,DBIL,[4],0 mg/dL
same,GLC,[4],192 mg/dL
same,IP,[4],7.9 mg/dL
same,K,[4],4.1 meq/L
same,LDH,[4],172.2 IU/L
same,Na,[4],139.8 meq/L
same,PL,[4],156.8 mg/dL
same,RALB,[4],3 g/dL
same,TBIL,[4],0 mg/dL
same,TC,[4],79.4 mg/dL
same,TG,[4],134.4 mg/dL
same,TP,[4],5.6 g/dL
same,gamma-GTP,[4],1.4 IU/L
same,Bas,[5],0%
same,Eos,[5],1.2%
same,Fbg,[5],303 mg/dL
same,Hb,[5],13.2 g/dL
same,Lym,[5],75.2%
same,MCHC,[5],32.8%
same,MCV,[5],62.8 fL
same,Mono,[5],2.4%
same,Neu,[5],20%
same,PT,[5],16.2 s
same,Plat,[5],114.5 x10_4/uL
same,RBC,[5],642.4 x10_4/ul
same,Ret,[5],8.7%
same,WBC,[5],70.3 x10_2/uL
same,ALP,[5],1421 IU/L
same,ALT,[5],43.6 IU/L
same,AST,[5],79.4 IU/L
same,BUN,[5],12.2 mg/dL
same,CRE,[5],0.2 mg/dL
same,Ca,[5],10.6 mg/dL
same,Cl,[5],106.2 meq/L
same,DBIL,[5],0 mg/dL
same,GLC,[5],187 mg/dL
same,IP,[5],9.4 mg/dL
same,K,[5],3.6 meq/L
same,LDH,[5],226.4 IU/L
same,Na,[5],140.8 meq/L
same,PL,[5],118.2 mg/dL
same,RALB,[5],3.1 g/dL
same,TBIL,[5],0 mg/dL
same,TC,[5],72.4 mg/dL
same,TG,[5],24.4 mg/dL
same,TP,[5],5.6 g/dL
same,gamma-GTP,[5],1.2 IU/L
same,Bas,[6],0%
same,Eos,[6],1%
same,Fbg,[6],311 mg/dL
same,Hb,[6],13.6 g/dL
same,Ht,[6],41.3%
same,Lym,[6],75.8%
same,MCHC,[6],32.8%
same,MCV,[6],64.6 fL
same,Mono,[6],2%
same,Neu,[6],20.4%
same,PT,[6],16.4 s
same,Plat,[6],121.3 x10_4/uL
same,RBC,[6],641.2 x10_4/ul
same,Ret,[6],8.2%
same,WBC,[6],74.6 x10_2/uL
same,ALP,[6],1566.4 IU/L
same,ALT,[6],35 IU/L
same,AST,[6],74.6 IU/L
same,BUN,[6],12.4 mg/dL
same,CRE,[6],0.2 mg/dL
same,Ca,[6],10.6 mg/dL
same,Cl,[6],107.6 meq/L
same,DBIL,[6],0 mg/dL
same,GLC,[6],181 mg/dL
same,IP,[6],9.2 mg/dL
same,K,[6],3.8 meq/L
same,LDH,[6],210.8 IU/L
same,Na,[6],139.6 meq/L
same,PL,[6],115.2 mg/dL
same,RALB,[6],3 g/dL
same,TBIL,[6],0 mg/dL
same,TC,[6],69.6 mg/dL
same,TG,[6],27.8 mg/dL
same,TP,[6],5.6 g/dL
same,gamma-GTP,[6],1.4 IU/L
same,APTT,[7],22.8 s
same,Bas,[7],0%
same,Eos,[7],1%
same,Fbg,[7],324 mg/dL
same,Hb,[7],13.3 g/dL
same,Lym,[7],67%
same,MCHC,[7],33%
same,MCV,[7],62 fL
same,Mono,[7],1.8%
same,Neu,[7],29.8%
same,PT,[7],15.6 s
same,Plat,[7],116.6 x10_4/uL
same,RBC,[7],651 x10_4/ul
same,Ret,[7],8%
same,WBC,[7],71.1 x10_2/uL
same,ALP,[7],1673.4 IU/L
same,ALT,[7],41.2 IU/L
same,AST,[7],75.2 IU/L
same,BUN,[7],13 mg/dL
same,CRE,[7],0.2 mg/dL
same,Ca,[7],10.8 mg/dL
same,Cl,[7],106.8 meq/L
same,DBIL,[7],0.004 mg/dL
same,GLC,[7],171.2 mg/dL
same,IP,[7],9.4 mg/dL
same,K,[7],3.9 meq/L
same,LDH,[7],198.2 IU/L
same,Na,[7],139.8 meq/L
same,PL,[7],101.2 mg/dL
same,RALB,[7],3.1 g/dL
same,TBIL,[7],0.002 mg/dL
same,TC,[7],60.6 mg/dL
same,TG,[7],17.2 mg/dL
same,TP,[7],5.5 g/dL
same,gamma-GTP,[7],1.2 IU/L
same,Bas,[8],0%
same,Eos,[8],1%
same,Fbg,[8],319 mg/dL
same,Hb,[8],13.3 g/dL
same,Ht,[8],39.7%
same,Lym,[8],71.4%
same,MCHC,[8],33.4%
same,MCV,[8],63.3 fL
same,Mono,[8],3%
same,Neu,[8],23.2%
same,PT,[8],15.9 s
same,Plat,[8],117.3 x10_4/uL
same,RBC,[8],627 x10_4/ul
same,Ret,[8],7.2%
same,WBC,[8],92.1 x10_2/uL
same,ALP,[8],1735.4 IU/L
same,ALT,[8],53 IU/L
same,AST,[8],75.4 IU/L
same,BUN,[8],16.6 mg/dL
same,CRE,[8],0.2 mg/dL
same,Ca,[8],10.5 mg/dL
same,Cl,[8],104.4 meq/L
same,DBIL,[8],0 mg/dL
same,GLC,[8],188.6 mg/dL
same,IP,[8],8.1 mg/dL
same,K,[8],4.1 meq/L
same,LDH,[8],174.8 IU/L
same,Na,[8],139.6 meq/L
same,PL,[8],144.2 mg/dL
same,RALB,[8],3 g/dL
same,TBIL,[8],0 mg/dL
same,TC,[8],70.6 mg/dL
same,TG,[8],119.2 mg/dL
same,TP,[8],5.4 g/dL
same,gamma-GTP,[8],1 IU/L
